Test results as given in patent publication USRE39593E1 (Gruenenthal GmbH, priority 1994, dated 2007).
Structures can show the parent of a compound that is named as a salt.

Test system: phenylquinone-induced writhing reaction
Assay: Phenylquinone-induced writhing test on mice
Assay type: in vivo
Settings: Mus musculus, male NMRI mice; for ED50: oral administration 30 min before phenylquinone i.p., dose with 50% inhibition of writhing reaction; for inhibition at 25 mg/kg: 25 mg/kg per os, 30 min before phenylquinone i.p.
Experimental: The analgesic effectiveness of the compounds according to the invention was investigated in the phenylquinone-induced writhing test, modified according to I. C. Hendershot, J. Forsaith in J. Pharmacol. Exptl. Ther. 125, 237 (1959), on mice. Male NMRI mice with a weight between 25 and 30 g were used for this purpose. For each dose of substance, each 10 animals received, 30 minutes after the oral administration of a compound according to the invention, 0.3 ml per mouse of an 0.02% aqueous phenylquinone solution (phenylbenzoquinone manufactured by Sigma, Deisenhofen; solution prepared with the addition of 5% ethanol and kept on a water bath at 45° C.) administered intraperitoneally. Thereafter the animals were placed individually in observation cages. The number of pain-induced stretching movements (writhing reaction-straightening of the body with stretching of the rear extremities) was counted with the aid of a push-button counter. The Ed50 value (effective dose with 50% inhibition of writhing reaction) was calculated with a 95% confidence limit by means of regression analysis (evaluation program supplied by Martens EDV-Service, Eckental) from the dose-dependent decrease in the writhing reaction, by comparison with mice tested in parallel to which only phenylquinone had been administered.

Row | SMILES | ED50 | inhibition at 25 mg/kg
1 | CC[C@](O)(c1cccc(OC)c1)[C@H](C)CN(C)C.Cl (racemic) [(1), (2RS,3RS)-1-dimethylamino-3-(3-methoxyphenyl)-2-methylpentan-3-ol Hydrochloride] | 5.8 mg/kg | –
2 | CC[C@](O)(c1ccc(Cl)c(Cl)c1)[C@H](C)CN(C)C.Cl (racemic) [(2), (2RS,3RS)-3-(3,4-dichlorophenyl)-1-dimethylamino-2-methylpentan-3-ol Hydrochloride] | 13.2 mg/kg | –
3 | CC[C@](O)(c1cccc(OC(C)C)c1)[C@H](C)CN(C)C (racemic) [(3), (2RS,3RS)-3-(3-isopropoxyphenyl)-1-dimethylamino-2-methylpentan-3-ol Hydrochloride] | – | 81.3%
4 | CC[C@](O)(c1cccc(Cl)c1)[C@H](C)CN(C)C.Cl (racemic) [(4), (2RS,3RS)-3-(3-chlorophenyl)-1-dimethylamino-2-methylpentan-3-ol Hydrochloride] | 15.5 mg/kg | –
5 | CC[C@](O)(c1cccc(C(F)(F)F)c1)[C@H](C)CN(C)C.Cl (racemic) [(5), (2RS,3RS)-1-dimethylamino-2-methyl-3-(3-trifluoromethylphenyl)-pentan-3-ol Hydrochloride] | 8.3 mg/kg | –
6 | CC[C@](O)(c1cccc(C)c1)[C@H](C)CN(C)C.Cl (racemic) [(6), (2RS,3RS)-1-dimethylamino-2-methyl-3-(3-m-tolyl)-pentan-3-ol Hydrochloride] | 11.8 mg/kg | –
7 | CC[C@](O)(c1cccc(F)c1)[C@H](C)CN(C)C.Cl (racemic) [(7), (2RS, 3RS)-1-dimethylamino-3-(3-fluorophenyl)-2-methylpentan-3-ol Hydrochloride] | 27.3 mg/kg | –
8 | CC[C@](O)(c1cccc(C(F)F)c1)[C@H](C)CN(C)C.Cl (racemic) [(8), (2RS,3RS)-3-(3-difluoromethylphenyl)-1-dimethylamino-2-methylpentan-3-ol Hydrochloride] | 12.9 mg/kg | –
9 | CC[C@](O)(c1cccc(SC)c1)[C@H](C)CN(C)C.Cl (racemic) [(9), (2RS,3RS)-1-dimethylamino-2-methyl-3-(3-methylsulphanylphenyl)-pentan-3-ol Hydrochloride] | 12.8 mg/kg | –
10 | CC[C@](O)(c1ccc2ccoc2c1)[C@H](C)CN(C)C.Cl (racemic) [(10), (2RS,3RS)-3-benzofuran-6-yl-1-dimethylamino-2-methylpentan-3-ol Hydrochloride] | 12.9 mg/kg | –
11 | CCCC(O)(CCN(C)C)c1cccc(OC)c1.Cl (racemic) [(12), (3RS)-1-dimethylamino-3-(3-methoxyphenyl)-hexan-3-ol Hydrochloride] | 19.9 mg/kg | –
12 | COc1cccc(C(O)(CCN(C)C)C(C)(C)C)c1.Cl (racemic) [(14), (3RS)-1-dimethylamino-3-(3-methoxyphenyl)-4,4-dimethylpentan-3-ol Hydrochloride] | 10.5 mg/kg | –
13 | COc1cccc([C@](C)(O)[C@H](C)CN(C)C)c1 (racemic) [(15), Hydrochloride] | 3.8 mg/kg | –
14 | CC[C@](O)(c1cccc(O)c1)[C@H](C)CN(C)C (racemic) [(16), (2RS,3RS)-3-(3-dimethylamino-1-ethyl-1-hydroxy-2-methylpropyl)-phenol Hydrochloride] | – | 100%
15 | CC[C@](O)(c1cccc(OC)c1)[C@H](C)CN(C)C [(+1), (+)-(2R,3R)-1-dimethylamino-3-(3-methoxyphenyl)-2-methylpentan-3-ol Hydrochloride] | 1.1 mg/kg | –
16 | COc1cccc([C@](C)(O)[C@H](C)CN(C)C)c1 [(+15), Hydrochloride] | – | 95.2%
17 | CC[C@](O)(c1cccc(O)c1)[C@H](C)CN(C)C [(+16), (+) (2S,3S 1R,2R)-3-(dimethylamino-1-ethyl-1-hydroxy-2-methylpropyl)-phenol Hydrochloride] | 1 mg/kg | –
18 | C[C@H](CN(C)C)[C@@](C)(O)c1cccc(O)c1 [(+17), (+)-(1R,2R)-3-(3-dimethylamino-1-hydroxy-1,2-dimethylpropyl)-phenolhydrochloride] | – | 97.2%
19 | CC[C@](F)(c1cccc(O)c1)[C@H](C)CN(C)C.Cl [(+18), (+)-(1R,2R)-3-(3-dimethylamino-1-ethyl-1-fluoro-2-methylpropyl)-phenol Hydrochloride] | 15.7 mg/kg | –
20 | CC[C@H](c1cccc(O)c1)[C@H](C)CN(C)C.Cl [(+21), (+)-(1S,2R 2S)-3-(3-dimethylamino-1-ethyl-2-methylpropyl)-phenol hydrochloride] | 1.9 mg/kg | –
21 | CC[C@@](O)(c1cccc(OC)c1)[C@@H](C)CN(C)C [(−1), (−)-(2S,3S)-1-dimethylamino-3-(3-methoxyphenyl)-2-methylpentan-3-ol Hydrochloride] | 22.3 mg/kg | –
22 | CC[C@@](O)(c1cccc(O)c1)[C@@H](C)CN(C)C [(−16), (-) (2S,3S) 1S,2S)-3-(dimethylamino-1-ethyl-1-hydroxy-2-methylpropyl)-phenol Hydrochloride] | 16.1 mg/kg | –
23 | C[C@@H](CN(C)C)[C@](C)(O)c1cccc(O)c1 [(−17), (−)-(1S,2S)-3-(3-dimethylamino-1-hydroxy-1,2-dimethylpropyl)-phenol Hydrochloride] | – | 58.3%
